The NIST ThermoML archive (doi:10.1021/je5002945)
± gives the expanded uncertainty stated by the source.

Conditions: 101.33 kPa, Liquid, Vibrating tube method

| SMILES | mass density (293.15 K) [kg/m3] | mass density (298.15 K) [kg/m3] | mass density (303.15 K) [kg/m3] | mass density (308.15 K) [kg/m3] | mass density (313.15 K) [kg/m3] | mass density (318.15 K) [kg/m3] | mass density (323.15 K) [kg/m3] |
| --- | --- | --- | --- | --- | --- | --- | --- |
| CN(C)C=O [dimethylformamide] | 948.72 ± 0.07 | 943.86 ± 0.07 | 939 ± 0.07 | 934.08 ± 0.07 | 929.13 ± 0.08 | 924.06 ± 0.08 | 918.96 ± 0.08 |
| CNC=O [N-methylformamide] | 1003.35 ± 0.23 | 998.91 ± 0.23 | 994.49 ± 0.23 | 990.01 ± 0.23 | 985.47 ± 0.23 | 980.88 ± 0.23 | 976.24 ± 0.23 |
| CC(=O)N(C)C [N,N-dimethylethanamide] | 940.92 ± 0.23 | 936.3 ± 0.23 | 931.62 ± 0.23 | 926.89 ± 0.23 | 922.09 ± 0.23 | 917.23 ± 0.23 | 912.23 ± 0.23 |

The remaining lines, values ahead:

| mass density (293.15 K) [kg/m3] | mass density (298.15 K) [kg/m3] | mass density (303.15 K) [kg/m3] | mass density (308.15 K) [kg/m3] | mass density (313.15 K) [kg/m3] | mass density (318.15 K) [kg/m3] | mass density (323.15 K) [kg/m3] | SMILES |
| --- | --- | --- | --- | --- | --- | --- | --- |
| 951.59 ± 0.23 | 947.48 ± 0.23 | 943.29 ± 0.23 | 939.04 ± 0.23 | 934.78 ± 0.23 | 930.45 ± 0.23 | 926.06 ± 0.23 | CCNC=O [N-ethylformamide] |
| 879.05 ± 0.23 | 875.12 ± 0.23 | 871.17 ± 0.23 | 867.15 ± 0.23 | 863.11 ± 0.23 | 859.01 ± 0.23 | 854.82 ± 0.23 | CCCCN(C=O)CCCC [N,N-dibutylformamide] |
